Results published in patent publication US7122686B2, “Analogs of discodermolide and dictyostatin-1, intermediates therefor and methods of synthesis thereof” (University of Pittsburgh, priority 2002, dated 2006).
“Also recorded” adds a separate entry of the source.

Legend:
[1] = test system: 2008 (ovarian); assay: Cell growth inhibition, 2008 (ovarian); assay type: cell-based, human; details: for 50% growth inhibitory concentration: human ovarian cancer cells; for GI50: Homo sapiens, 72 h, read-out: GI50 (μM) 2008 (ovarian)
Experimental: (§1) Cell Growth Inhibition[34] Cells were plated (500–2000 cells/well depending on the cell line) in 96-well microplates, allowed to attach and grow for 48 h, then treated with vehicle (4% DMSO, a concentration that allowed doubling times of 24 h or less) or test agent (50, 10, 2, 0.4 and 0.08 μM for the new agents; 0.001, 0.005, 0.010, 0.020 and 0.100 μM for paclitaxel and discodermolide) for the given times. One plate consisted of cells from each line used for a time zero cell number determination. The other plates in a given determination contained eight wells of control cells, eight wells of medium and each agent concentration tested in quadruplicate. Cell numbers were obtained spectrophotometrically (absorbance at 490 nm minus that at 630 nm) in a Dynamax plate reader after treatment with 3-(4,5-dimethylthiazol-2-yl)-5-(3-carboxymethoxyphenyl)-2-(4-sulfophenyl)-2H-tetrazolium (MTS) using phenazine methanesulfonate as the electron acceptor. After initial screening with the above 5-fold dilutions, fifty percent growth inhibitory concentration (GI50) values were determined for each agent by repeating the screen using 2-fold dilutions (five concentrations) centered on the initial estimated GI50 concentration, again in quadruplicate.

[2] = test system: MDA-MB231 (breast); assay: Cell growth inhibition, MDA-MB231 (breast); assay type: cell-based, human; details: for 50% growth inhibitory concentration: human breast cancer cells; for GI50: Homo sapiens, MDA-MB-231, 72 h, read-out: GI50 (μM) MDA-MB231 (breast)
Experimental: as §1

[3] = test system: paclitaxel binding site on tubulin; assay: Paclitaxel binding site inhibition assay ([3H]paclitaxel displacement); set-up: species or system bovine
Experimental: Paclitaxel binding site inhibition assay. A stock solution of [^3H]paclitaxel (26.8 μM, 16.2 Ci/mmol), obtained from the NCI, was prepared in 37% (v/v) DMSO. The test agents were prepared in 25% (v/v) DMSO-0.75 M monosodium glutamate (prepared from a 2M stock solution adjusted to pH 6.6 with HCl). The radiolabeled paclitaxel and test agents, as indicated in terms of final concentrations, were mixed in equal volumes and warmed to 37° C. A reaction mixture (50 μL) containing 0.75 M monosodium glutamate, 4.0 μM tubulin, and 40 μM ddGTP (a non-hydrolyzable analog of GTP) was prepared and incubated at 37° C. for 30 min to preform microtubules. An equivalent volume of drug mixture with [^3H]paclitaxel was added to preformed polymer and incubated for 30 min at 37° C. Bound [^3H]paclitaxel was separated from free drug by centrifugation of the reaction mixtures at 14000 rpm for 20 min at room temperature. Non-specific binding was determined by addition of a 12-fold excess of docetaxel. Radioactive counts from the supernatant (50 μL) were determined by scintillation spectrometry. Bound [^3H]paclitaxel was calculated from the following: total paclitaxel added to each reaction mixture minus the paclitaxel present in the supernatant (free drug). The % bound values were normalized to the control values with no inhibitor added.

[4] = test system: tubulin; assay: Tubulin polymerization (microtubule stabilizing activity); assay type: biochemical, bovine; details: in comparison to 10 μM paclitaxel; turbidity, cold-induced disassembly
Experimental: Tubulin Polymerization.[32] Tubulin assembly was followed in a Beckman-Coulter 7400 spectrophotometer, equipped with an electronic Peltier temperature controller, reading absorbance (turbidity) at 350 nm. Reaction mixtures (0.25 mL final volume) contained tubulin (final concentration 10 μM; 1 mg/mL), monosodium glutamate (0.8 M from a stock solution adjusted to pH 6.6 with HCl), DMSO (final volume 4% v/v), and differing concentrations of test agent where indicated. Reaction mixtures without test agent were cooled to 0° C. and added to cuvettes held at 0.25–0.5° C. in the spectrophotometer. Test agent in DMSO was then rapidly mixed in the reaction mixture. Each run contained one positive control (paclitaxel, 10 μM final concentration) and one negative control (DMSO only). Baselines were established at 0.25–2.5° C. and temperature was rapidly raised to 30° C. (in approximately 1 min) and held there for 20 min.

[5] = test system: PC3 (prostate); assay: Cell growth inhibition, PC3 (prostate); assay type: cell-based; details: Homo sapiens, 72 h, read-out: GI50 (μM) PC3 (prostate)
Experimental: as §1

Compound	50% growth inhibitory concentration [1]	50% growth inhibitory concentration [2]	Tubulin polymerization-inducing properties (FIGS. 6A-D, in words) [4]	also measured
C=CC=CC(C)[C@H]1OC(=O)C=CC=C[C@@H](C)[C@H](O)CCC=C[C@H](C)[C@H](O)[C@@H](C)C=CCC[C@@H](O)[C@H]1C (stereo partly drawn) [Compound 54, (7R,8R,13S,14S,15S,20R,21R,22R,23S)-8,14,20-Trihydroxy-7,13,15,21-tetramethyl-22-(1-methylpenta-2,4-dienyl)-oxacyclodocosa-3,5,11,16-tetraen-2-one]	about 1 μM	about 1 μM	–	[3H]paclitaxel displacement potency relative to discodermolide ([3]; [3H]paclitaxel stoichiometrically bound to microtubules): about ⅓
C=C/C=C\[C@H](C)[C@H](OC(N)=O)[C@@H](C)[C@H](O)CC/C=C\[C@H](C)[C@H](O)[C@@H](C)/C=C\CC[C@@H]1OC(=O)[C@H](C)[C@@H](OCOC)[C@H]1C [Compound 41, Carbamic acid, (1S,2S,3R,6Z,8S,9S,10S,11Z)-3,9-dihydroxy-14-[(2S,3S,4S,5R)-4-methoxymethoxy-3,5-dimethyl-6-oxotetrahydropyran-2-yl]-2,8,10-trimethyl-1-[(1S,2Z)-1-methylpenta-2,4-dienyl]tetradeca-6,11-dienyl ester]	–	submicromolar	more rapid polymer-inducing and cold-resistant properties; also recorded: most potent among these analogs	GI50 [1]: 0.65 ± 0.25 µM; GI50 [5]: 1.8 ± 0.9 µM; GI50 [2]: 0.87 ± 0.21 µM; Displacement of [3H]paclitaxel from microtubules (in words) ([3]; 2-fold molar excess of test agent): better than paclitaxel and at almost the same potency as discodermolide
C=CC=C[C@H](C)[C@@H](O)[C@H](C)[C@H](O)CCC=C[C@H](C)[C@@H](O)[C@@H](C)C=CCCCCCCCCC(=O)O [Compound 49, (12S,13S,14S,19R,20R,21R,22S)-13,19,21-Trihydroxy-12,14,20,22-tetramethylhexacosa-10,15,23,25-tetraenoic acid]	> 50 µM	> 50 µM	–	–
C=CC=C[C@H](C)[C@H]1OC(=O)CCCCCCCCC=C[C@H](C)[C@H](O)[C@@H](C)C=CCC[C@@H](O)[C@H]1C [Compound 43, (1S,13S,14S,15S,20R,21R,22R)-14,20-Dihydroxy-13,15,21-trimethyl-22-(1-methylpenta-2,4-dienyl)-oxacyclodocosa-11,16-dien-2-one]	15 to 30 µM	15 to 30 µM	–	–
C=C/C=C\[C@H](C)[C@H](OC(N)=O)[C@@H](C)[C@H](O)CC/C=C\[C@H](C)[C@H](O)[C@@H](C)/C=C\CC[C@@H]1O[C@@H](OC)[C@H](C)[C@@H](OCOC)[C@H]1C [Compound 42, Carbamic acid, (1S,2S,3R,6Z,8S,9S,10S,11Z)-3,9-dihydroxy-14-[(2S,3S,4S,5R,6R)-6-methoxy-4-methoxymethoxy-3,5-dimethyltetrahydropyran-2-yl]-2,8,10-trimethyl-1-[(1S,2Z)-1-methylpenta-2,4-dienyl]tetradeca-6,11-dienyl ester]	–	–	more rapid polymer-inducing and cold-resistant properties	GI50 [1]: 4.7 ± 0.6 µM; GI50 [5]: 15 ± 3 µM; GI50 [2]: 3.4 ± 0.8 µM
C=C/C=C\[C@H](C)[C@H](OC(N)=O)[C@@H](C)[C@H](O)[C@@H](C)C/C(C)=C\[C@H](C)[C@@H](O)[C@@H](C)/C=C\[C@@H](O)C[C@@H]1OC(=O)[C@H](C)[C@@H](O)[C@H]1C [discodermolide, (+)-discodermolide]	–	–	superior to paclitaxel	–
C=CC=C[C@H](C)[C@@H](O)[C@H](C)[C@H](O)CCC=C[C@H](C)[C@@H](O)[C@@H](C)C=CCCCCCCCCC(=O)OC [Compound 48, (12S,13S,14S,19R,20R,21R,22S)-13,19,21-Trihydroxy-12,14,20,22-tetramethylhexacosa-10,15,23,25-tetraenoic acid methyl ester]	15 to 30 µM	15 to 30 µM	–	–
C=CC=C[C@H](C)[C@@H](O)[C@H](C)[C@H](O)CCC=C[C@H](C)[C@@H](O)[C@@H](C)C=CCCCCCCCCCO [Compound 47, (12S,13S,14S,19R,20R,21R,22S)-12,14,20,22-Tetramethylhexacosa-10,15,23,25-tetraene-1,13,19,21-tetraol]	15 to 30 µM	15 to 30 µM	–	–
